≈ marks a conversion by molar mass, not a printed value.
How the values were obtained:
E. coli AR-0349 = assay: MICs of a panel of 9 antibiotics with and without compound 3; format: cell-based; settings: for INT (S-R interpretation): CLSI 2021, M100, Ed 31; for MIC: Escherichia coli, AR0349, antibiotic alone, multidrug-resistant E. coli, read-out: MIC; for MIC (+3): in the presence of 1 μg/mL of compound 3
E. coli AR-0493 [1] = assay: MIC, CLSI broth microdilution, substance alone; format: cell-based
Experimental: A MDR E. coli strain AR-0493 (a.k.a., ATCC BAA-3170) was obtained from the CDC and FDA Antibiotic Resistance Bank and used for the initial screen. […] Considering the difficulties on the discovery of novel antimicrobial reagents against Gram-negative bacteria, we chose to screen the fragment-based library of 3,200 compounds from TimTec (Tampa, FL). […] The screen used a modified broth microdilution assay.
These 10 compounds were tested for their MICs and minimum re-sensitizing concentrations (MRCs) in the presence colistin at 2 μg/mL in E. coli AR-0493. […] To evaluate their toxicity in mammalian cells, the present inventors treated human epithelial adenocarcinoma HeLa cells with each compound at a wide range of concentrations. […]
(§1) General Methods. MDR strains E. coli AR-0493, AR-0346, and AR-0538, Salmonella Enteritidis AR-0496, Salmonella Typhimurium AR-0635, K. pneumoniae AR-0497, A. baumannii AR-0300 and AR-0310 were all obtained from the CDC & FDA Antibiotic Resistance Isolate Bank. E. coli K-12 was a gift from the Copley lab (Department of MCD Biology, University of Colorado Boulder). HeLa cells were purchased from the ATCC. All bacterial strains were grown on trypticase soy agar supplemented with 5% sheep blood (BAP). Bacteria were then cultured in Luria-Bertani (LB) medium at 35° C. until they achieve the log phase before screening or antimicrobial testing using CAMHB media. MIC, MRC, and checkerboard analyses and mammalian growth inhibition analyses in Hela cells were performed as described previously. More details are given in Supporting information.

E. coli AR-0493 [2] = assay: Minimum re-sensitizing concentration (MRC) in the presence of colistin; format: cell-based; settings: in the presence of 2 μg/mL colistin, E. coli AR-0493
Experimental: These 10 compounds were tested for their MICs and minimum re-sensitizing concentrations (MRCs) in the presence colistin at 2 μg/mL in E. coli AR-0493.
The present inventors further conducted MRC screens of selected compounds from groups 2-5 in AR-0493. Compound were tested against AR-0493 with compound X+2 μg/mL Colistin.
All compounds were tested for their respective minimum resensitizing concentrations (MRCs) for colistin against E. coli. AR0493, a MDR strain from CDC and FDA Antibiotic Resistance Bank. […] For the symmetrical bisanilino series, 7a-p, electron-donating alkyl and alkoxy groups (entries 7a-g, Table 5) at various positions of the phenyl rings were investigated. […] Three asymmetric bisanilino analogs (7q-s, Table 5) were synthesized based on the SARs of the monoanilino analogs 8a-p (vide infra).
as §1

HeLa cells = assay: in vitro; format: cell-based, human
Experimental: These 10 compounds were tested for their MICs and minimum re-sensitizing concentrations (MRCs) in the presence colistin at 2 μg/mL in E. coli AR-0493. […] To evaluate their toxicity in mammalian cells, the present inventors treated human epithelial adenocarcinoma HeLa cells with each compound at a wide range of concentrations.
To evaluate the mammalian toxicity of these analogs, Applicants tested them in cell viability assay using human cervical adenocarcinoma HeLa cells. Their respective half maximal growth inhibition concentration (GI50) was calculated using KaleidaGraph. The selectivity index (SI) for each compound was also calculated as the ratio of their GI50 and MRC. […] Therefore, Applicants selected two bisanilino analogs, 7l and 7m, that bear chlorines at the meta- and para-positions, respectively, of the phenyl groups for further characterization studies. […]. […] Their mammalian toxicities were also evaluated, and SIs calculated. […] Applicants we next explored the scope of analogs 71 and 7m their colistin-potentiating activity in 8 different MDR Gram negative bacteria with diverse genetic backgrounds and resistance mechanisms (Table 7). All strains were obtained from CDC and FDA Antibiotic Resistance Bank. For example, E. coli AR-0493 and K. pneumoniae AR-0497 carry the plasmid that contains the most prevalent mcr-1 gene. E. coli AR-0538, Salmonella Typhimurium AR-0539 and AR-0635 contain the mcr-2, 3, and 4 genes, respectively. These genes encode the phosphoethanolamine transferase, which was originated form the chromosome of A. baumannii, such as AR-0310. […]. A. baumannii AR-0310 appears more sensitive to these two compounds and the MICs of colistin was reduced to 0.25 μg/mL.
as §1

SMILES: CC[C@H]1OC(=O)[C@H](C)[C@@H](O[C@H]2C[C@@](C)(OC)[C@@H](O)[C@H](C)O2)[C@H](C)[C@@H](O[C@@H]2O[C@H](C)C[C@H](N(C)C)[C@H]2O)[C@](C)(O)C[C@@H](C)CN(C)[C@H](C)[C@@H](O)[C@]1(C)O [Azithromycin]
- INT (S-R interpretation) (E. coli AR-0349): R
- MIC (E. coli AR-0349): > 64 µg/mL
- MIC (+3) (E. coli AR-0349): >64 µg/mL

SMILES: CC(C)(O/N=C(\C(=O)N[C@@H]1C(=O)N2C(C(=O)[O-])=C(C[n+]3ccccc3)CS[C@H]12)c1csc(N)n1)C(=O)O [Ceftazidime]
- INT (S-R interpretation) (E. coli AR-0349): R
- MIC (E. coli AR-0349): > 64 µg/mL
- MIC (+3) (E. coli AR-0349): >64 µg/mL

SMILES: O=C(O)c1cn(C2CC2)c2cc(N3CCNCC3)c(F)cc2c1=O [Ciprofloxacin]
- MIC (E. coli AR-0349): 32 µg/mL (≈ 96.6 µM)
- MIC (+3) (E. coli AR-0349): 32 µg/mL

SMILES: Cc1cccc(Nc2nc3nonc3nc2O)c1 [Compound 4]
- MIC (E. coli AR-0493 [1]): did not show either antimicrobial or RMA activity
- MRC (minimum re-sensitizing concentration) (E. coli AR-0493 [2]): did not show either antimicrobial or RMA activity

SMILES: c1ccc(Nc2nc3nonc3nc2Nc2ccccc2)cc1 [Compound 7a]
- MIC (E. coli AR-0493 [1]): >64 µg/mL
- MRC (minimum re-sensitizing concentration) (E. coli AR-0493 [2]): 0.5 µg/mL
- GI50 (HeLa cells): 4.4 µg/mL

SMILES: Cc1ccccc1Nc1nc2nonc2nc1Nc1ccccc1C [Compound 7b]
- MRC (minimum re-sensitizing concentration) (E. coli AR-0493 [2]): 8 µg/mL

SMILES: Cc1cccc(Nc2nc3nonc3nc2Nc2cccc(C)c2)c1 [Compound 7c]
- MIC (E. coli AR-0493 [1]): >64 µg/mL
- MRC (minimum re-sensitizing concentration) (E. coli AR-0493 [2]): 0.5 µg/mL
- GI50 (HeLa cells): 1.5 µg/mL

SMILES: Cc1ccc(Nc2nc3nonc3nc2Nc2ccc(C)cc2)cc1 [Compound 7d]
- MIC (E. coli AR-0493 [1]): >64 µg/mL
- MRC (minimum re-sensitizing concentration) (E. coli AR-0493 [2]): 0.5 µg/mL
- GI50 (HeLa cells): 1.1 µg/mL

SMILES: COc1ccccc1Nc1nc2nonc2nc1Nc1ccccc1OC [Compound 7e]
- MRC (minimum re-sensitizing concentration) (E. coli AR-0493 [2]): >64 µg/mL

SMILES: COc1cccc(Nc2nc3nonc3nc2Nc2cccc(OC)c2)c1 [Compound 7f]
- MRC (minimum re-sensitizing concentration) (E. coli AR-0493 [2]): 2 µg/mL

SMILES: COc1ccc(Nc2nc3nonc3nc2Nc2ccc(OC)cc2)cc1 [Compound 7g]
- MRC (minimum re-sensitizing concentration) (E. coli AR-0493 [2]): >64 µg/mL

SMILES: Fc1cccc(Nc2nc3nonc3nc2Nc2cccc(F)c2)c1 [Compound 7i]
- MIC (E. coli AR-0493 [1]): >64 µg/mL
- MRC (minimum re-sensitizing concentration) (E. coli AR-0493 [2]): 0.5 µg/mL
- GI50 (HeLa cells): 20 µg/mL

SMILES: Fc1ccc(Nc2nc3nonc3nc2Nc2ccc(F)cc2)cc1 [Compound 7j]
- MIC (E. coli AR-0493 [1]): >64 µg/mL
- MRC (minimum re-sensitizing concentration) (E. coli AR-0493 [2]): 0.5 µg/mL
- GI50 (HeLa cells): 9.4 µg/mL

SMILES: Clc1ccccc1Nc1nc2nonc2nc1Nc1ccccc1Cl [Compound 7k]
- MRC (minimum re-sensitizing concentration) (E. coli AR-0493 [2]): 8 µg/mL

SMILES: FC(F)(F)Oc1ccccc1Nc1nc2nonc2nc1Nc1ccccc1OC(F)(F)F [Compound 7n]
- MRC (minimum re-sensitizing concentration) (E. coli AR-0493 [2]): >64 µg/mL

SMILES: FC(F)(F)Oc1cccc(Nc2nc3nonc3nc2Nc2cccc(OC(F)(F)F)c2)c1 [Compound 7o]
- MIC (E. coli AR-0493 [1]): >64 µg/mL
- MRC (minimum re-sensitizing concentration) (E. coli AR-0493 [2]): 0.25 µg/mL
- MRC (minimum re-sensitizing concentration) (E. coli AR-0493 [2]; listed as 57o): 0.25 µg/mL
- GI50 (HeLa cells): 43 µg/mL

SMILES: FC(F)(F)Oc1cccc(Nc2nc3nonc3nc2Nc2ccccc2)c1 [Compound 7q]
- MRC (minimum re-sensitizing concentration) (E. coli AR-0493 [2]): 1 µg/mL

SMILES: Cc1cccc(Nc2nc3nonc3nc2Nc2cccc(OC(F)(F)F)c2)c1 [Compound 7r]
- MIC (E. coli AR-0493 [1]): >64 µg/mL
- MRC (minimum re-sensitizing concentration) (E. coli AR-0493 [2]): 0.5 µg/mL
- GI50 (HeLa cells): 12 µg/mL

SMILES: COc1ccccc1Nc1nc2nonc2nc1Nc1cccc(OC(F)(F)F)c1 [Compound 7s]
- MRC (minimum re-sensitizing concentration) (E. coli AR-0493 [2]): >64 µg/mL

SMILES: Oc1nc2nonc2nc1Nc1ccccc1 [Compound 8a]
- MRC (minimum re-sensitizing concentration) (E. coli AR-0493 [2]): >64 µg/mL

— patent US20250170127A1, “RE-SENSITIZING MULTIDRUG-RESISTANT (MDR) GRAM-NEGATIVE BACTERIA TO COLISTIN USING IONOPHORES” (The Regents of the University of Colorado, a body corporate, priority 2022, published 2025)
